Tests used:
rP2Y1-GFP receptor = settings: read-out: EC50 at P2Y1R (rP2Y1-GFP receptor); cited from earlier work
tP2Y1 receptor = tP2Y1 receptor (Meleagris gallopavo, UniProt P49652); test: [Ca2+]i elevation in 1321N1 astrocytoma cells expressing turkey P2Y1 receptor; type: cell-based; settings: 1321N1 astrocytoma cells stably transfected with turkey P2Y1 receptor, fura-2, 37 °C; for EC50: read-out: EC50 for [Ca2+]i elevation, P2Y1
human e-NPP1 = target: T1, human e-NPP1 (Homo sapiens, UniProt P22413); test: Hydrolysis of dinucleotides by human e-NPP1; type: in vitro ADME; settings: over 20 min at 37 °C, pH 8.5
T1 sequence (P22413 1-925): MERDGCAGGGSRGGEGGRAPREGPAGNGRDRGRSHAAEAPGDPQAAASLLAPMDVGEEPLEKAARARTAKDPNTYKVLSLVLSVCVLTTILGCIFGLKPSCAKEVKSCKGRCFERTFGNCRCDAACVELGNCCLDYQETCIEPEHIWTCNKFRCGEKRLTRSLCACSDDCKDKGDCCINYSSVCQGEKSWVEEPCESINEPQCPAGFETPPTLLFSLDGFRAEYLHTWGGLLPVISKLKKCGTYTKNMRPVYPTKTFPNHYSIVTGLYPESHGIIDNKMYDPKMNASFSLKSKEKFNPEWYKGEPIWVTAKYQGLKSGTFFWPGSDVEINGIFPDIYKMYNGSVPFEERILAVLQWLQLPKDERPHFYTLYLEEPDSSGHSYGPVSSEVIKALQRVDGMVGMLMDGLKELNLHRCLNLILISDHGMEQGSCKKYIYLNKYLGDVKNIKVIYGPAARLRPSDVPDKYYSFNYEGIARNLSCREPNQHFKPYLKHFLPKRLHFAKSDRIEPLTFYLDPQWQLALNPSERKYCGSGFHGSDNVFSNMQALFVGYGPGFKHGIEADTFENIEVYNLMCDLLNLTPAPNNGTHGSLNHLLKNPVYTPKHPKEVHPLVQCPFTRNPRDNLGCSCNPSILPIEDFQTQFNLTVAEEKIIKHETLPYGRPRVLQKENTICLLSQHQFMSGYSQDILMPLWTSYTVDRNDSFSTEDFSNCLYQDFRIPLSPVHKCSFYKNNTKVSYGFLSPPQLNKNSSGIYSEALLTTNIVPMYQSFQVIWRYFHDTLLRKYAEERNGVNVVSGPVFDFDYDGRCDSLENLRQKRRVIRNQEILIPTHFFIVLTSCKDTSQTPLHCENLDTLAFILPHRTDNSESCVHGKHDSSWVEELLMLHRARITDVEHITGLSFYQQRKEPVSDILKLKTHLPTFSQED

P2Y2R = settings: read-out: EC50 at P2Y2R; cited from earlier work

Chain of tP2Y1 receptor (P49652 whole entry): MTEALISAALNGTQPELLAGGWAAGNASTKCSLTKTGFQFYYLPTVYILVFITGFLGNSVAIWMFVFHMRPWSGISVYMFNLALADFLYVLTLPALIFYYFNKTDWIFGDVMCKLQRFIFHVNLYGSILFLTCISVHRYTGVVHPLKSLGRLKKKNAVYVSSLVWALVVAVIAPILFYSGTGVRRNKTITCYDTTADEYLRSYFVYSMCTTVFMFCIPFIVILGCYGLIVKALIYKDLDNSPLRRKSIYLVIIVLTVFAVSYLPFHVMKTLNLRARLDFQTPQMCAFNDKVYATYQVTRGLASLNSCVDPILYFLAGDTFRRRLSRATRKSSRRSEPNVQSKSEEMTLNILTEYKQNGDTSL

## CSc1nc(N)c2ncn([C@@H]3O[C@H](COP(=O)(O)OP(=O)(O)O)[C@@H](O)[C@H]3O)c2n1 [Analogue 2-SMe-ADP]
rP2Y1-GFP receptor
  EC50: 100 nM

## [BH3-][P+](O)(OP(=O)(O)OC[C@H]1O[C@@H](n2ccc(=O)[nH]c2=O)[C@H](O)[C@@H]1O)OP(=O)(O)OP(=O)(O)OC[C@H]1O[C@@H](n2ccc(=O)[nH]c2=O)[C@H](O)[C@@H]1O (some centres unmarked) [Analogue 7A, P^2-Borano-P^1,P^4-di(5′-uridine)tetraphosphate]
tP2Y1 receptor
  EC50: > 100000 nM

## [BH3-][P+](O)(OP(=O)(O)OC[C@H]1O[C@@H](n2cnc3c(N)ncnc32)[C@H](O)[C@@H]1O)OP(=O)(O)OP(=O)(O)OC[C@H]1O[C@@H](n2ccc(=O)[nH]c2=O)[C@H](O)[C@@H]1O (some centres unmarked) [Analogue 8, P^3-Borano-P^1,P^4-5′-uridine-5′-adenosinetetraphosphate]
tP2Y1 receptor; listed as Ap4(β-B)U
  EC50 for [Ca2+]i elevation, P2Y1: inactive

## [BH3-][P+](O)(OP(=O)(O)OC[C@H]1O[C@@H](n2cnc3c(N)ncnc32)[C@H](O)[C@@H]1O)OP(=O)(O)OP(=O)(O)OC[C@H]1O[C@@H](n2ccc(=O)[nH]c2=O)[C@H](O)[C@@H]1O (some centres unmarked) [Analogue 8A, P^3-Borano-P^1,P^4-5′-uridine-5′-adenosinetetraphosphate]
tP2Y1 receptor
  EC50: > 100000 nM

## BP(=O)(OC[C@H]1O[C@@H](n2cnc3c(N)ncnc32)[C@H](O)[C@@H]1O)OP(=O)(O)OP(=O)(O)OC[C@H]1O[C@@H](n2cnc3c(N)ncnc32)[C@H](O)[C@@H]1O (some centres unmarked) [Analogue 10A, P^1-Borano-P^1,P^3-5′-diadenosinetriphosphate]
Human e-NPP1
  percentage of the compound hydrolyzed by human e-NPP1: completely resistant to hydrolysis

## BP(=O)(OC[C@H]1O[C@@H](n2ccc(=O)[nH]c2=O)[C@H](O)[C@@H]1O)OP(=O)(O)OP(=O)(O)OC[C@H]1O[C@@H](n2ccc(=O)[nH]c2=O)[C@H](O)[C@@H]1O (some centres unmarked) [Analogue 11A, P^1-Borano-P^1,P^3-5′-diuridinetriphosphate]
Human e-NPP1
  percentage of the compound hydrolyzed by human e-NPP1: completely resistant to hydrolysis

## BP(=O)(OC[C@H]1O[C@@H](n2ccc(=O)[nH]c2=O)[C@H](O)[C@@H]1O)OP(=O)(O)OP(=O)(O)OP(=O)(O)OC[C@H]1O[C@@H](n2ccc(=O)[nH]c2=O)[C@H](O)[C@@H]1O (some centres unmarked) [Analogue 13A, P^1-Borano-P^1,P^4-5′-diuridinetetraphosphate]
tP2Y1 receptor
  EC50: > 100000 nM

## O=c1ccn([C@@H]2O[C@H](COP(=O)(O)OP(=O)(O)OP(=O)(O)O)[C@@H](O)[C@H]2O)c(=O)[nH]1 [UTP, uridine 5′-triphosphate]
P2Y2R
  EC50: 15 nM

From PMC4358768 (Journal of medicinal chemistry, 2011)
